Earlier results as cited in paper PMC9781020, “Anti-Mycobacterial N-(2-Arylethyl)quinolin-3-amines Inspired by Marine Sponge-Derived Alkaloid” (Molecules, 2022).

Test system: drug-sensitive M. tuberculosis H37Rv and extensively drug-resistant M. tuberculosis strains
Details: cited from earlier work

For `COC1=Cc2ccnc3c(NCCc4ccccc4)cnc(c23)C1=O` [Compound 1, 3-(phenethylamino)demethyl(oxy)aaptamine, reference compound], the MIC is listed as 1.5 to 6.0 µM.
